Structure (SMILES) | melting point [°C]
Cc1cc2c(nc(C)n2CCc2ccccc2)c(N)n1 | 185 to 187
O=C(O)CCC/C=C\C[C@@H]1[C@H]2CC[C@H](C2)[C@H]1NC(=O)c1csc2ccc(O)cc12 | 141 to 142
O=C1CCN(C(=O)c2cc(-c3ccccc3)c(=O)n3c2-c2sccc2CC3)CC1 | 218 to 220
CCc1ccc(C(C)(C)C)c(O)c1C(=O)Nc1ccc(S(=O)(=O)C(F)(F)F)cc1Cl | 126 to 127
O=Cc1cc2c(cc1C=O)[C@H](CO)OC2=O | 144 to 145
CSCOc1ccc2c(c1)CCC1C2CCC2(C)C(=O)CCC12 (stereo unspecified) | 65
CCc1cc2c(c(CC)n1)CCC(=O)N2Cc1ccc(-c2ccccc2-c2nnn(C(c3ccccc3)(c3ccccc3)c3ccccc3)n2)cc1 | 165 to 167
COc1ccc2c(=O)c(CO)cn(C)c2c1 | 164 to 166
CCCCCCCCCC=C1OC(=O)N(CCCCSc2cccc3nccn23)C1=O | 46 to 48
O=C(NC1c2cc(NC(=O)N3CCCC3)ccc2CCC1O)c1ccc(Cl)c(Cl)c1 (stereo unspecified) | 206 to 208
CC(=O)NC[C@H]1CN(c2ccc(N3CCC(n4nnnc4CC(=O)N4CCOCC4)CC3)c(F)c2)C(=O)O1 | 146 to 148
NS(=O)(=O)c1ccccc1CSC1=NCCS1 | 123 to 125
CCN1c2ncc(CCc3cccc(N=[N+]=[N-])c3)cc2C(=O)N(C)c2ccc(Cl)nc21 | 104 to 105
Cc1ccc(S(=O)(=O)NCCCC(NS(=O)(=O)c2ccc(-c3ccc(Cl)cc3)cc2)C(=O)O)cc1 (stereo unspecified) | 62
CSC1=NCCN1CC(C)O (stereo unspecified) | 114 to 116
CCCC(=O)N(NC(N)=S)c1ccccc1 | 219 to 221
COC(=O)N1C[C@@H]2CN(c3ccc(N4C[C@H](CNC(C)=O)OC4=O)cc3F)C[C@@H]2C1 | 128 to 132
CC1(C)C(=O)Oc2ccc3ccc(C=O)cc3c21 | 135 to 137
CCOC(=O)c1cnc2ccn(Cc3ccccc3)n2c1=O | 172 to 173
COc1cc(Br)cc([N+](=O)[O-])c1N | 137 to 138
Cc1ccc(S(=O)(=O)N2CCCC2c2ccc(N(C)C)c(F)c2)cc1 (racemic) | 66
Cc1nn2ccccc2c1C(=O)C1=CN(C(=O)Nc2ccc(Cl)cc2)CCC1 | 198 to 200
CS(=O)(=O)c1ccc(-n2nc(C(F)(F)F)cc2-c2ccc(-c3ncco3)cc2)cc1 | 190 to 192
Clc1ccc(-c2cc(C3CCN(Cc4ccccc4)CC3)no2)cc1 | 112 to 114
CC(C)Cn1c(CNC(=O)OC(C)(C)C)c(-c2ccccc2)c2cc(OC(C)(C)C(=O)O)ccc2c1=O | 219 to 220
N#CC1=C(N)CCN(C(=O)c2ccccc2)C1 | 178 to 181

Structure (SMILES) | melting point [°C]
O=C1CN2Cc3cc(OCCCC(=O)N(CCO)CC4CCCCC4)ccc3N=C2N1 | 223 to 224
Nc1ccc(C(=O)Nc2ccc(-c3ccc(C(=O)N4CCN5CCC4CC5)o3)cc2)cc1 | 151
CC(C)NC(=O)N1CCc2[nH]cnc2C1c1cccnc1 (stereo unspecified) | 237
CCOc1nc(Cl)nc(N(C)C)n1 | 124
O=C(N[C@H]1CC[C@H](CCN2CCC(c3cccc4c3CCO4)CC2)CC1)c1ccc(F)cc1 | 213
CON=C1CN(c2nc3c(cc2F)c(=O)c(C(=O)O)cn3-c2ccc(F)cc2F)CC12CN(C(=O)OC(C)(C)C)C2 | 230 to 232
CN(Cc1ccccc1)CC1Nc2ccccc2Cn2cccc21 (stereo unspecified) | 147 to 149
COc1cc(C2=CCCCC2)c(Cl)cc1C(=O)N1Cc2ccc(C(=O)N(C)C[C@@H]3OC(=O)O[C@H]3[C@H](O)[C@H]3COC(=O)O3)n2Cc2ccccc21 | 163 to 176
O=C(c1ccccc1)n1cc(F)c(=O)n(C(=O)c2ccccc2)c1=O | 195
CCOc1ncc(NC(=O)Nc2c(CC)cccc2CC)c(-c2ccccc2Cl)n1 | 190 to 191
O=CNc1ccccc1CNC1CCC(=O)NC1=O (stereo unspecified) | 169 to 174
CC1(C)C=Cc2cc(C(=O)NCCc3ccc(OCc4ccccc4)cc3)ccc2O1 | 133 to 135
CCOC(=O)CC(=O)c1ccc(-c2ccccc2)cc1 | 75 to 77
O=C(Nc1cccnc1)N1CCN(c2nccc(-c3cccc(F)c3F)n2)CC1 | 232 to 233
CC(=O)c1c(N)c(-c2ccccc2)n(C)c1C | 124 to 126
COc1cc(CCN2CCN(C)CC2)cc(OC)c1-c1ccc(C[C@H](NC(=O)c2c(Cl)cccc2Cl)C(=O)O)cc1 | 179
[O-][N+]1=C(c2ccccc2)c2cc(Cl)ccc2CCC1 | 120 to 125
Cc1nc2cc(C(=O)O)c(C(=O)O)cc2n1C | 308 to 312
CC(C)SCS(=O)C(C)C (stereo unspecified) | 39 to 40
N#Cc1c(Cl)cc(OCc2ccncc2)cc1OC(C(=O)O)c1ccccc1Cl (racemic) | 165 to 167
CCCCCc1cc(-c2cc(=O)c3c(O)cc(O)cc3o2)ccc1OC | 166 to 168
NC(=O)c1nc(-c2ccc(Cl)cc2Cl)c(-c2ccc(Cl)cc2)s1 | 195 to 198
COc1ccc(C2OC3(CCNCC3)N3CCCCC23)cc1 (stereo unspecified) | 128 to 130
CCC1Cc2cc(OCC#N)c(Cl)c(Cl)c2C1=O (stereo unspecified) | 139 to 141
CCC1CC(C)C(=O)C=C1c1ccc(OCC(=O)O)c(Cl)c1Cl (stereo unspecified) | 99 to 100
COc1cc2c(cc1F)C1(CO2)C(=O)N(CC2CCCO2)c2ccccc21 (stereo unspecified) | 106 to 116

Structure (SMILES) | melting point [°C]
Cc1nc2cnc3ccccc3c2s1 | 95.5 to 97.5
CCCCOS(C)(=O)=O | 100 to 101
COc1ccc(CNc2nnc(Cl)c3cc(Cl)ccc23)cc1Cl | 168 to 170
CCc1ccc(C2=NC(C)(C(C)C)C(=O)N2CC(=O)O)nc1 (stereo unspecified) | 134 to 136
NS(=O)(=O)c1ccc(-c2[nH]c3ccccc3c2-c2ccc(Br)cc2)cc1 | 277 to 279
ClCCCOc1ccc(/C=C/c2nc3ccccc3o2)cc1 | 82 to 83
N#Cc1ccc(CC(NC(=O)OCc2ccccc2)C(=O)NCC(=O)NCCC(=O)OCc2ccccc2)cc1 (racemic) | 134 to 135
Cn1cc(-c2cnccn2)cc(Cl)c1=O | 197 to 198
CC(=O)OC1CSC(Oc2ccc(S(C)(=O)=O)cc2)C(OC(C)=O)C1OC(C)=O (stereo unspecified) | 168
COc1ccc(C(=O)Nc2ccccc2)cc1NCc1ccccc1 | 164 to 165
COc1ccc2c(c1)c(COC(C)(C)C(=O)O)nn2Cc1ccccc1 | 128 to 130
CN1CCC(O)(C2SCCCS2)CC1 | 115 to 120
O=C(NC(c1ccccc1)c1ccccc1)NS(=O)(=O)Cl | 80 to 88
CS(=O)(=O)Nc1cccc(Nc2nc(N3CCC(O)C3)c3nc[nH]c3n2)c1 (stereo unspecified) | 243 to 248
CCOCc1nc2c(N)nc(C)c(C)c2n1CCCNC(=O)C(C)C | 179 to 180
Fc1ccc2c(c1)Oc1ccccc1-c1nc(SC(F)(F)C(F)F)[nH]c1-2 | 172 to 175
c1ccc(COc2ccc3c(c2)CCc2c-3[nH]c3ccc(OCc4ccccc4)cc23)cc1 | 177 to 180
C/C(=C\c1ccc(C(=O)OCc2ccc([N+](=O)[O-])cc2)cc1)c1ccc2c(c1)C(C)(C)CCC2(C)C | 183 to 184
COc1cc(NC(=O)c2c(Cl)cccc2Cl)c2ncccc2c1 | 180 to 182
CCNC(=O)c1ccc(N2CCNCC2)c(Cl)c1 | 117 to 119
CCOC(=O)CNC(=O)CN1CCCC1=O | 63 to 64
COc1ccc(S(=O)(=O)Nc2cnccc2Nc2ccccc2)cc1 | 201 to 202
CN(C)c1nc(Br)cnc1NS(=O)(=O)c1cccc2c(N(C)C)cccc12 | 180 to 182
COc1cccnc1C(c1cc(F)ccc1F)S(=O)(=O)c1ccc(Cl)cc1 (stereo unspecified) | 184 to 185
O=C(NCCc1ccccc1)c1ccccn1 | 58 to 59
CCOC(=O)C1=C(C)NC(C)=C([N+](=O)[O-])C1c1cccnc1 (stereo unspecified) | 264

Structure (SMILES) | melting point [°C]
COc1cccc(Cn2c(C(=O)O)c(-c3ccc(C(=O)NC4CC4)cc3)c3ccccc32)c1 | 237
COC1CCN2C(=O)c3cccc(NC(=O)Nc4ccccn4)c3C2C1 (stereo unspecified) | 166 to 168
C#Cc1cc(OC)c(OC)c(OC)c1 | 68 to 70
CC1(C)CNc2nc(-c3ccncc3)c(F)c(=O)n2C1 | 190 to 192
FC1(N2CCOCC2)C=C(Cl)C=CC1NC(=S)C1C=CCCC1 (stereo unspecified) | 86 to 88
O=C(O)CC=C(c1ccccc1)c1ccccc1 | 109 to 111
COC(=O)CSC(CCCc1ccccc1)c1ccc(OCc2ccc3ccc(F)cc3n2)cc1 (stereo unspecified) | 64 to 66
COc1ccc2c(c1)S(=O)(=O)c1ccccc1C(=S)N2 | 250 to 252
O=C(c1cccc([N+](=O)[O-])c1)c1ccc(Oc2ccccc2)c([N+](=O)[O-])c1 | 135 to 136
CCCCNC(=S)NS(=O)(=O)c1cc2c(cc1OC)OCCC2CNC(=O)c1cc(Cl)ccc1OC (stereo unspecified) | 167
COc1ccc(/C=C/c2nc3ccccc3n2-c2ccccn2)cc1 | 146
CC(O)c1cccc(-c2ccc3nc(-c4ccc(Cl)cc4)cn3c2)c1Cl (stereo unspecified) | 170 to 172
CC(=O)OCC(=O)C1(OC(C)=O)C(C)CC2C3CC(Cl)C4=CC(=O)C=CC4(C)C34OC4CC21C (stereo unspecified) | 211
C=CCON=C(CCC)C1=C(O)CC(c2ccc(C(=O)SCC)cc2)CC1=O (stereo unspecified) | 72 to 75
CN(C)C12CC3CC(CC(O)(C3)C1)C2 | 60 to 64
O=C(N1CCCC1)N1Cc2c(C3=NCCO3)ncn2-c2ccccc21 | 217 to 220
CCc1c(Br)c(C#N)nn1C | 72 to 74
OC/C=C/C=C(c1ccccc1)c1ccccc1 | 71 to 72
NS(=O)(=O)c1ccccc1OC(F)(F)C(F)F | 117 to 119
C/C=C/Cn1c(Oc2cc(C)cc(C)c2)c(CC)c(=O)[nH]c1=O | 149 to 150
OC(CCc1ccc2ccccc2c1)Cn1ccnc1 (stereo unspecified) | 122 to 124
CC(=O)CCCNC(=O)c1c2ccc(Cl)cc2c(-c2ccccc2)n1C | 128 to 131
O=S(=O)(Br)c1cccc2cccnc12 | 142 to 144

— a melting point compilation (Tetko et al.; mined from patent text by program, amines drawn as free bases though some values may be those of a salt)
